# Reference: ChEMBL document CHEMBL1201862, “PubChem BioAssay data set” (2004)
#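 The compound was tested at five concentrations on cells cultured in 96-well plates, with a 48-hour exposure period. GI50 marks 50% less growth.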 Active and inactive are the calls of the source. Rule as the data show it: active = GI50 up to about 1.1 µM and inactive = higher.
# Key:
# Test in all cases: inhibition of tumour cell growth, NCI panel, 48 h
# M14 = tested on: M14
# HOP-62 = tested on: HOP-62
# HT-29 = tested on: HT-29
# CAKI-1 = tested on: CAKI-1
# OVCAR-8 = tested on: OVCAR-8
# RXF 393 = tested on: RXF 393
# SK-MEL-5 = tested on: SK-MEL-5
# OVCAR-4 = tested on: OVCAR-4
# UACC-257 = tested on: UACC-257
# ACHN = tested on: ACHN
# CCRF-CEM = tested on: CCRF-CEM
# COLO 205 = tested on: COLO 205
# NCI-H460 = tested on: NCI-H460
# Hs-578T = tested on: Hs-578T
# SW-620 = tested on: SW-620
# PC-3 = tested on: PC-3
# SF-539 = tested on: SF-539
# HCT-116 = tested on: HCT-116
# MDA-N = tested on: MDA-N
# SNB-75 = tested on: SNB-75
# SK-OV-3 = tested on: SK-OV-3
# DU-145 = tested on: DU-145
# TK-10 = tested on: TK-10
# UACC-62 = tested on: UACC-62
# LOX IMVI = tested on: LOX IMVI
# U-251 = tested on: U-251
# KM12 = tested on: KM12
# A549 = tested on: A549
# MOLT-4 = tested on: MOLT-4
# HCT-15 = tested on: HCT-15
# 786-0 = tested on: 786-0
# BT-549 = tested on: BT-549
# RPMI-8226 = tested on: RPMI-8226
# A498 = tested on: A498
# NCI/ADR-RES = tested on: NCI/ADR-RES
# T47D = tested on: T47D
# K562 = tested on: K562
# HOP-92 = tested on: HOP-92
# IGROV-1 = tested on: IGROV-1
# MDA-MB-231 = tested on: MDA-MB-231
# OVCAR-3 = tested on: OVCAR-3
# OVCAR-5 = tested on: OVCAR-5
# UO-31 = tested on: UO-31
# NCI-H23 = tested on: NCI-H23
# HL-60 = tested on: HL-60
# SF-268 = tested on: SF-268
# SF-295 = tested on: SF-295
# NCI-H226 = tested on: NCI-H226
# NCI-H522 = tested on: NCI-H522
# EKVX = tested on: EKVX
# SN12C = tested on: SN12C
# MDA-MB-435 = tested on: MDA-MB-435
# MCF7 = tested on: MCF7
# SNB-19 = tested on: SNB-19
# SK-MEL-2 = tested on: SK-MEL-2
# SK-MEL-28 = tested on: SK-MEL-28
# HCC 2998 = tested on: HCC 2998
# Malme-3M = tested on: Malme-3M
compound,measurement,setting,value
O=C(O)CNc1ccc(Cl)c(Cl)c1,GI50,M14,27.4 µM (inactive)
same,GI50,HOP-62,24 µM (inactive)
same,GI50,HT-29,40.6 µM (inactive)
same,GI50,CAKI-1,17.9 µM (inactive)
same,GI50,OVCAR-8,29 µM (inactive)
same,GI50,RXF 393,35.3 µM (inactive)
same,GI50,SK-MEL-5,26.5 µM (inactive)
same,GI50,OVCAR-4,31.6 µM (inactive)
same,GI50,UACC-257,26.7 µM (inactive)
same,GI50,ACHN,20 µM (inactive)
same,GI50,CCRF-CEM,31.6 µM (inactive)
same,GI50,COLO 205,18.5 µM (inactive)
same,GI50,NCI-H460,23.6 µM (inactive)
same,GI50,Hs-578T,33.6 µM (inactive)
same,GI50,SW-620,23.9 µM (inactive)
same,GI50,PC-3,24.6 µM (inactive)
same,GI50,SF-539,33.5 µM (inactive)
same,GI50,HCT-116,19.2 µM (inactive)
same,GI50,MDA-N,23.7 µM (inactive)
same,GI50,SNB-75,26.6 µM (inactive)
same,GI50,SK-OV-3,37.8 µM (inactive)
same,GI50,DU-145,29.4 µM (inactive)
same,GI50,TK-10,20 µM (inactive)
same,GI50,UACC-62,28.1 µM (inactive)
same,GI50,LOX IMVI,35.2 µM (inactive)
same,GI50,U-251,31.1 µM (inactive)
same,GI50,KM12,19.1 µM (inactive)
same,GI50,A549,32.1 µM (inactive)
same,GI50,MOLT-4,29.6 µM (inactive)
same,GI50,HCT-15,8.83 µM
same,GI50,786-0,24.7 µM (inactive)
same,GI50,BT-549,36.7 µM (inactive)
same,GI50,RPMI-8226,21.9 µM (inactive)
same,GI50,A498,30.4 µM (inactive)
same,GI50,NCI/ADR-RES,28.6 µM (inactive)
same,GI50,T47D,15.6 µM (inactive)
same,GI50,K562,25.1 µM (inactive)
same,GI50,HOP-92,15.8 µM (inactive)
same,GI50,IGROV-1,1.1 µM (active)
same,GI50,MDA-MB-231,45.3 µM (inactive)
same,GI50,OVCAR-3,25.9 µM (inactive)
same,GI50,OVCAR-5,40.9 µM (inactive)
same,GI50,UO-31,24.9 µM (inactive)
same,GI50,NCI-H23,34.4 µM (inactive)
same,GI50,HL-60,24 µM (inactive)
same,GI50,SF-268,28.9 µM (inactive)
same,GI50,SF-295,24.6 µM (inactive)
same,GI50,NCI-H226,27.5 µM (inactive)
same,GI50,NCI-H522,16.3 µM (inactive)
same,GI50,EKVX,23.1 µM (inactive)
same,GI50,SN12C,32.7 µM (inactive)
same,GI50,MDA-MB-435,26.3 µM (inactive)
same,GI50,MCF7,13.9 µM (inactive)
same,GI50,SNB-19,34.5 µM (inactive)
CCOC(=O)Cc1nc2c(O)ncnc2n1C1OC(COC(C)=O)C(OC(C)=O)C1OC(C)=O (configuration not stated),GI50,M14,> 100 µM (inactive)
same,GI50,HOP-62,> 100 µM (inactive)
same,GI50,HT-29,> 100 µM (inactive)
same,GI50,CAKI-1,> 100 µM (inactive)
same,GI50,OVCAR-8,> 100 µM (inactive)
same,GI50,RXF 393,> 100 µM (inactive)
same,GI50,SK-MEL-5,> 100 µM (inactive)
same,GI50,OVCAR-4,> 100 µM (inactive)
same,GI50,UACC-257,> 100 µM (inactive)
same,GI50,ACHN,> 100 µM (inactive)
same,GI50,CCRF-CEM,> 100 µM (inactive)
same,GI50,COLO 205,> 100 µM (inactive)
same,GI50,NCI-H460,> 100 µM (inactive)
same,GI50,Hs-578T,> 100 µM (inactive)
same,GI50,SK-MEL-2,> 100 µM (inactive)
same,GI50,SW-620,> 100 µM (inactive)
same,GI50,SK-MEL-28,> 100 µM (inactive)
same,GI50,PC-3,> 100 µM (inactive)
same,GI50,SF-539,> 100 µM (inactive)
same,GI50,HCT-116,> 100 µM (inactive)
same,GI50,MDA-N,> 100 µM (inactive)
same,GI50,SNB-75,> 100 µM (inactive)
same,GI50,SK-OV-3,> 100 µM (inactive)
same,GI50,DU-145,> 100 µM (inactive)
same,GI50,TK-10,> 100 µM (inactive)
same,GI50,UACC-62,> 100 µM (inactive)
same,GI50,LOX IMVI,> 100 µM (inactive)
same,GI50,U-251,> 100 µM (inactive)
same,GI50,KM12,> 100 µM (inactive)
same,GI50,A549,> 100 µM (inactive)
same,GI50,HCC 2998,> 100 µM (inactive)
same,GI50,MOLT-4,> 100 µM (inactive)
same,GI50,HCT-15,> 100 µM
same,GI50,786-0,> 100 µM (inactive)
same,GI50,BT-549,> 100 µM (inactive)
same,GI50,RPMI-8226,> 100 µM (inactive)
same,GI50,A498,> 100 µM (inactive)
same,GI50,NCI/ADR-RES,> 100 µM (inactive)
same,GI50,T47D,> 100 µM (inactive)
same,GI50,Malme-3M,> 100 µM (inactive)
same,GI50,K562,> 100 µM (inactive)
same,GI50,HOP-92,> 100 µM (inactive)
same,GI50,IGROV-1,> 100 µM (inactive)
same,GI50,MDA-MB-231,> 100 µM (inactive)
same,GI50,OVCAR-3,> 100 µM (inactive)
same,GI50,OVCAR-5,> 100 µM (inactive)
same,GI50,UO-31,> 100 µM (inactive)
same,GI50,NCI-H23,> 100 µM (inactive)
same,GI50,HL-60,> 100 µM (inactive)
same,GI50,SF-268,> 100 µM (inactive)
same,GI50,SF-295,> 100 µM (inactive)
same,GI50,NCI-H226,> 100 µM (inactive)
same,GI50,NCI-H522,> 100 µM (inactive)
same,GI50,EKVX,> 100 µM (inactive)
same,GI50,SN12C,> 100 µM (inactive)
same,GI50,MDA-MB-435,> 100 µM (inactive)
same,GI50,MCF7,> 100 µM (inactive)
same,GI50,SNB-19,> 100 µM (inactive)
CC(=O)N1c2ccccc2C(C)(C)OC1C(Cl)(Cl)Cl (configuration not stated),GI50,M14,34 µM (inactive)
same,GI50,HOP-62,55.8 µM (inactive)
same,GI50,HT-29,24.2 µM (inactive)
same,GI50,CAKI-1,46.6 µM (inactive)
same,GI50,OVCAR-8,39.5 µM (inactive)
same,GI50,SK-MEL-5,23.8 µM (inactive)
same,GI50,OVCAR-4,42.5 µM (inactive)
same,GI50,UACC-257,26.5 µM (inactive)
same,GI50,ACHN,41.1 µM (inactive)
same,GI50,CCRF-CEM,27.7 µM (inactive)
same,GI50,COLO 205,30.3 µM (inactive)
same,GI50,NCI-H460,33.3 µM (inactive)
same,GI50,Hs-578T,22.6 µM (inactive)
same,GI50,SK-MEL-2,45.1 µM (inactive)
same,GI50,SW-620,34 µM (inactive)
same,GI50,SK-MEL-28,47.6 µM (inactive)
same,GI50,PC-3,31.8 µM (inactive)
same,GI50,SF-539,44.5 µM (inactive)
same,GI50,HCT-116,28.8 µM (inactive)
same,GI50,MDA-N,26.1 µM (inactive)
same,GI50,SNB-75,17.1 µM (inactive)
same,GI50,SK-OV-3,37.8 µM (inactive)
same,GI50,DU-145,42.1 µM (inactive)
same,GI50,TK-10,35.9 µM (inactive)
same,GI50,UACC-62,37 µM (inactive)
same,GI50,U-251,33.3 µM (inactive)
same,GI50,KM12,30.1 µM (inactive)
same,GI50,A549,27.7 µM (inactive)
same,GI50,HCC 2998,23.2 µM (inactive)
same,GI50,MOLT-4,14.4 µM (inactive)
same,GI50,HCT-15,32.2 µM
same,GI50,786-0,39 µM (inactive)
same,GI50,BT-549,35.8 µM (inactive)
same,GI50,RPMI-8226,14.1 µM (inactive)
same,GI50,A498,37 µM (inactive)
same,GI50,NCI/ADR-RES,31.7 µM (inactive)
same,GI50,T47D,84.7 µM (inactive)
same,GI50,Malme-3M,35.9 µM (inactive)
same,GI50,HOP-92,21 µM (inactive)
same,GI50,IGROV-1,41.8 µM (inactive)
same,GI50,MDA-MB-231,39.6 µM (inactive)
same,GI50,OVCAR-3,33.1 µM (inactive)
same,GI50,OVCAR-5,44.8 µM (inactive)
same,GI50,UO-31,58.2 µM (inactive)
same,GI50,NCI-H23,34.1 µM (inactive)
same,GI50,HL-60,16.8 µM (inactive)
same,GI50,SF-268,37.3 µM (inactive)
same,GI50,SF-295,37.6 µM (inactive)
same,GI50,NCI-H226,87.7 µM (inactive)
same,GI50,NCI-H522,23.3 µM (inactive)
same,GI50,EKVX,26.2 µM (inactive)
same,GI50,SN12C,29.9 µM (inactive)
same,GI50,MDA-MB-435,25.5 µM (inactive)
same,GI50,MCF7,23.6 µM (inactive)
same,GI50,SNB-19,44.7 µM (inactive)
